Reference: US8901147B2, “Bi-heteroaryl compounds as Vps34 inhibitors” (Novartis AG, priority 2010, dated 2014)
pIC50: −log10 of the molar value.

Target: recombinant human Vps34 (Homo sapiens, UniProt Q8NEB9)
Assay: Vps34 KinaseGlo assay
Assay type: biochemical
Conditions: KinaseGlo luminescence ATP detection; PI/OG substrate; 1 μM ATP; room temperature; 8 concentrations, n=2
Description: It was then resuspended in 3% OctylGlucoside by vortexing and stored at 4° C. 5 μL of a mix of PI/OG with recombinant human Vps34 were added. Kinase reactions were started by addition of 5 μl of ATP-mix containing in a final volume 10 μL 10 mM TRIS-HCl pH 7.5, 3 mM MgCl2, 50 mM NaCl, 0.05% CHAPS, 1 mM DTT and 1 μM ATP, and occurred at room temperature. Reactions were stopped with 10 μl of KinaseGlo and plates were read 10 minutes later in a Synergy2 reader using an integration time of 0.1 seconds per well.

Chain of recombinant human Vps34 (Q8NEB9 whole entry): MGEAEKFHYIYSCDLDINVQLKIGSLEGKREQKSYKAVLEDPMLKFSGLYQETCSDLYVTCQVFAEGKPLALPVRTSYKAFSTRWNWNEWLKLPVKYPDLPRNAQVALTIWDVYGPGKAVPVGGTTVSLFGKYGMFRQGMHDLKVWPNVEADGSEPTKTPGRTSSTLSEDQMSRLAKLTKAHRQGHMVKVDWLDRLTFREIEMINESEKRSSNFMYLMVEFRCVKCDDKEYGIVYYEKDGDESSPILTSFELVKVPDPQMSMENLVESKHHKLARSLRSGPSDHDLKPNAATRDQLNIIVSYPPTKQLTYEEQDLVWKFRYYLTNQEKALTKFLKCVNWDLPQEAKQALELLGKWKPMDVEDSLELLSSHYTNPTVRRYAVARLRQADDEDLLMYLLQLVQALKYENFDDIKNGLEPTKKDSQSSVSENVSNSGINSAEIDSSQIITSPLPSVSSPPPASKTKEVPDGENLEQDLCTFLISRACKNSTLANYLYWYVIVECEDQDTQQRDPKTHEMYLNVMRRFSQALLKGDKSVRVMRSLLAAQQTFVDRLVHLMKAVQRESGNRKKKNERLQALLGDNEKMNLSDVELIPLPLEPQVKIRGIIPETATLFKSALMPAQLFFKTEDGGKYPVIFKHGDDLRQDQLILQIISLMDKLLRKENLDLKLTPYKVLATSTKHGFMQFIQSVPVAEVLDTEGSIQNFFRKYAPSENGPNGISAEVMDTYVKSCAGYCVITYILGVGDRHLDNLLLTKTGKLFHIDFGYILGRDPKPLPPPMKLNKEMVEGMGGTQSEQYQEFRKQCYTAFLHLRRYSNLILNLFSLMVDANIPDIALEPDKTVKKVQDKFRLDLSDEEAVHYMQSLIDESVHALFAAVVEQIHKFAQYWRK

Compound | pIC50
CNc1ncc(-c2ccnc(NC3CCOCC3)n2)c(CC2CC2)n1 [Example 14g, 4′-(cyclopropylmethyl)-N^2′-methyl-N^2-(tetrahydro-2H-pyran-4-yl)-4,5′-bipyrimidine-2,2′-diamine] | 6.40
CNc1ncc(-c2ccnc(NCCCN)n2)c(CC2CC2)n1 [Example 14s, N^2-(3-aminopropyl)-4′-(cyclopropylmethyl)-N^2′-methyl-4,5′-bipyrimidine-2,2′-diamine] | 5.15
CNc1ncc(-c2ccnc(N[C@H]3CC[C@H](NC(=O)OC(C)(C)C)CC3)n2)c(CC2CC2)n1 [Example 14i, tert-butyl (1r,4r)-4-(4′-(cyclopropylmethyl)-2′-(methylamino)-4,5′-bipyrimidin-2-ylamino)cyclohexylcarbamate] | 6.46
CNc1ncc(-c2ccnc(Nc3ccccc3)n2)c(CC2CC2)n1 [Example 14b, 4′-(cyclopropylmethyl)-N^2′-methyl-N^2-phenyl-4,5′-bipyrimidine-2,2′-diamine] | 6.54
CNc1ncc(-c2ccnc(Nc3ccncc3)n2)c(CC2CC2)n1 [Example 14c, 4′-(cyclopropylmethyl)-N^2′-methyl-N^2-(pyridin-4-yl)-4,5′-bipyrimidine-2,2′-diamine] | 7.43
Nc1ncc(-c2ccnc(NCCc3c[nH]cn3)n2)c(CC2CC2)n1 [Example 15t, N^2-(2-(1H-imidazol-4-yl)ethyl)-4′-(cyclopropylmethyl)-4,5′-bipyrimidine-2,2′-diamine] | 6.73
Nc1ncc(-c2ccnc(NCCN3CCOCC3)n2)c(CC2CC2)n1 [Example 15s, 4′-(cyclopropylmethyl)-N^2-(2-morpholinoethyl)-4,5′-bipyrimidine-2,2′-diamine] | 5.78
C[C@@H](CO)Nc1ncc(-c2ccnc(Nc3ccncc3)n2)c(CC2CC2)n1 [Example 10q, (S)-2-(4′-(cyclopropylmethyl)-2-(pyridin-4-ylamino)-4,5′-bipyrimidin-2′-ylamino)propan-1-ol] | 7.28
CNc1ncc(-c2ccnc(Nc3cccnc3)n2)c(CC2CC2)n1 [Example 14l, 4′-(cyclopropylmethyl)-N^2′-methyl-N^2-(pyridin-3-yl)-4,5′-bipyrimidine-2,2′-diamine] | 7.32
CNc1ncc(-c2ccnc(NC3CCC3)n2)c(CC2CC2)n1 [Example 14f, N^2-cyclobutyl-4′-(cyclopropylmethyl)-N^2′-methyl-4,5′-bipyrimidine-2,2′-diamine] | 6.14
Nc1ccc(Nc2nccc(-c3cnc(N)nc3CC3CC3)n2)cc1 [Example 15u, N^2-(4-aminophenyl)-4′-(cyclopropylmethyl)-4,5′-bipyrimidine-2,2′-diamine] | 6.98
CC(C)(O)CNc1ncc(-c2ccnc(Nc3ccncc3)n2)c(CC2CC2)n1 [Example 10t, 1-(4′-(cyclopropylmethyl)-2-(pyridin-4-ylamino)-4,5′-bipyrimidin-2′-ylamino)-2-methylpropan-2-ol] | 7.82
CNc1ncc(-c2ccnc(Nc3cnc4ccccc4c3)n2)c(CC2CC2)n1 [Example 14d, 4′-(cyclopropylmethyl)-N^2′-methyl-N^2-(quinolin-3-yl)-4,5′-bipyrimidine-2,2′-diamine] | 6.88
c1cc(Nc2nccc(-c3cnc(NC4CCCC4)nc3CC3CC3)n2)ccn1 [Example 10e, N2′-cyclopentyl-4′-(cyclopropylmethyl)-N2-(pyridin-4-yl)-4,5′-bipyrimidine-2,2′-diamine] | 7.11
CNc1ncc(-c2ccnc(NC3CCC(O)CC3)n2)c(CC2CC2)n1 (stereo not drawn) [Example 14k, 4-(4′-(cyclopropylmethyl)-2′-(methylamino)-4,5′-bipyrimidin-2-ylamino)cyclohexanol] | 6.07
CNc1ncc(-c2ccnc(N[C@H]3CC[C@H](C(=O)O)CC3)n2)c(CC2CC2)n1 [Example 14n, (1r,4r)-4-(4′-(cyclopropylmethyl)-2′-(methylamino)-4,5′-bipyrimidin-2-ylamino)cyclohexanecarboxylic acid] | 6.36
Cc1ncc(-c2ccnc(N[C@H]3CC[C@H](O)CC3)n2)c(CC2CC2)n1 [Example 6c, (1r,4r)-4-(4′-(cyclopropylmethyl)-2′-methyl-4,5′-bipyrimidin-2-ylamino)cyclohexanol] | 6.11
N#Cc1ccc(Nc2nccc(-c3cnc(N)nc3CC3CC3)n2)cc1 [Example 15x, 4-(2′-amino-4′-(cyclopropylmethyl)-4,5′-bipyrimidin-2-ylamino)benzonitrile] | 7.57
Nc1ncc(-c2ccnc(Nc3ccc4c(c3)OCO4)n2)c(CC2CC2)n1 [Example 15m, N^2-(benzo[d][1,3]dioxol-5-yl)-4′-(cyclopropylmethyl)-4,5′-bipyrimidine-2,2′-diamine] | 7.00

Next, values leading:

pIC50 | Compound
6.92 | CNc1ncc(-c2ccnc(Nc3ccc(OC)cc3)n2)c(CC2CC2)n1 [Example 14m, 4′-(cyclopropylmethyl)-N^2-(4-methoxyphenyl)-N^2′-methyl-4,5′-bipyrimidine-2,2′-diamine]
7.14 | CC(C)CNc1ncc(-c2ccnc(Nc3ccncc3)n2)c(CC2CC2)n1 [Example 10d, 4′-(cyclopropylmethyl)-N^2′-isobutyl-N^2-(pyridin-4-yl)-4,5′-bipyrimidine-2,2′-diamine]
5.87 | CNc1ncc(-c2ccnc(NC3CCCC3)n2)c(CC2CC2)n1 [Example 14h, N^2-cyclopentyl-4′-(cyclopropylmethyl)-N^2′-methyl-4,5′-bipyrimidine-2,2′-diamine]
6.43 | CNc1ncc(-c2ccnc(N[C@H]3CC[C@H](OC)CC3)n2)c(CC2CC2)n1 [Example 14o, 4′-(cyclopropylmethyl)-N^2-((1r,4r)-4-methoxycyclohexyl)-N^2′-methyl-4,5′-bipyrimidine-2,2′-diamine]
6.82 | CC(C)(O)CNc1ncc(-c2ccnc(Nc3ccc(F)cc3)n2)c(CC2CC2)n1 [Example 16c, 1-(4′-(cyclopropylmethyl)-2-(4-fluorophenylamino)-4,5′-bipyrimidin-2′-ylamino)-2-methylpropan-2-ol]
6.64 | CN(C)c1cccc(Nc2nccc(-c3cnc(N)nc3CC3CC3)n2)c1 [Example 15y, 4′-(cyclopropylmethyl)-N^2-(3-(dimethylamino)phenyl)-4,5′-bipyrimidine-2,2′-diamine]
7.50 | CC(CO)Nc1ncc(-c2ccnc(Nc3ccncc3)n2)c(CC2CC2)n1 (stereo not drawn) [Example 10o, 2-(4′-(cyclopropylmethyl)-2-(pyridin-4-ylamino)-4,5′-bipyrimidin-2′-ylamino)propan-1-ol]
7.51 | COCCNc1ncc(-c2ccnc(Nc3ccncc3)n2)c(CC2CC2)n1 [Example 10n, 4′-(cyclopropylmethyl)-N^2′-(2-methoxyethyl)-N^2-(pyridin-4-yl)-4,5′-bipyrimidine-2,2′-diamine]
7.44 | Cc1cc2cc(Nc3nccc(-c4cnc(N)nc4CC4CC4)n3)ccc2[nH]1 [Example 15w, 4′-(cyclopropylmethyl)-N^2-(2-methyl-1H-indol-5-yl)-4,5′-bipyrimidine-2,2′-diamine]
6.59 | C[C@@H](Nc1ncc(-c2ccnc(Nc3ccncc3)n2)c(CC2CC2)n1)c1ccccc1 [Example 10h, (R)-4′-(cyclopropylmethyl)-N^2′-(1-phenylethyl)-N^2-(pyridin-4-yl)-4,5′-bipyrimidine-2,2′-diamine]
6.56 | (S)-1-[4′-Cyclopropylmethyl-2-(pyridin-4-ylamino)-[4,5]bipyrimidinyl-2′-ylamino]-propan-2-ol [Example 10k]
